Laboratory results from ChEMBL document CHEMBL3351312, “Design of Fluorine-Containing 3,4-Diarylfuran-2(5H)-ones as Selective COX-1 Inhibitors” (ACS Med Chem Lett, 2014).

Assays:
[1] = biological target: T1, Prostaglandin G/H synthase 1 (Ovis aries, UniProt P05979); assay: Inhibition of ovine COX-1 assessed as inhibition of [14C]arachidonic acid to radiolabeled prostaglandins preincubated for 20 mins by TLC-based assay
T1 sequence (P05979 whole entry): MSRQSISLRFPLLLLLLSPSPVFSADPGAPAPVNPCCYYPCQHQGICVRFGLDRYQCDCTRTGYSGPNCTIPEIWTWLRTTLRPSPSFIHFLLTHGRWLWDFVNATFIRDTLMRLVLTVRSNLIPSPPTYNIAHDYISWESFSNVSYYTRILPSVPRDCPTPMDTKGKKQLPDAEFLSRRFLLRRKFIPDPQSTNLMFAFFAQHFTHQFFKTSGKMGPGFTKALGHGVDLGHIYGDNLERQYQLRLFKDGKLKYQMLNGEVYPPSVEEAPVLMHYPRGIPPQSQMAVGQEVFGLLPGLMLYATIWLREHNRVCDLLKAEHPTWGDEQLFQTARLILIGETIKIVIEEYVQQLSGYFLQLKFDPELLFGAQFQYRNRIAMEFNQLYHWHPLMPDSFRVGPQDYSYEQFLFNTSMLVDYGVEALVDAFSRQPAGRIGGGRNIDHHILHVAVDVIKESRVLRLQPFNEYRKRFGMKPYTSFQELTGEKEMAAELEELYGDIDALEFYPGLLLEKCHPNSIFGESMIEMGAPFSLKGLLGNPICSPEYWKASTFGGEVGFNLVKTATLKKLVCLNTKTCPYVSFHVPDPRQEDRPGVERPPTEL

[2] = biological target: T2, Prostaglandin G/H synthase 2 (Mus musculus, UniProt Q05769); assay: Inhibition of mouse COX-2 assessed as inhibition of [14C]arachidonic acid to radiolabeled prostaglandins preincubated for 20 mins by TLC-based assay
T2 sequence (Q05769 whole entry): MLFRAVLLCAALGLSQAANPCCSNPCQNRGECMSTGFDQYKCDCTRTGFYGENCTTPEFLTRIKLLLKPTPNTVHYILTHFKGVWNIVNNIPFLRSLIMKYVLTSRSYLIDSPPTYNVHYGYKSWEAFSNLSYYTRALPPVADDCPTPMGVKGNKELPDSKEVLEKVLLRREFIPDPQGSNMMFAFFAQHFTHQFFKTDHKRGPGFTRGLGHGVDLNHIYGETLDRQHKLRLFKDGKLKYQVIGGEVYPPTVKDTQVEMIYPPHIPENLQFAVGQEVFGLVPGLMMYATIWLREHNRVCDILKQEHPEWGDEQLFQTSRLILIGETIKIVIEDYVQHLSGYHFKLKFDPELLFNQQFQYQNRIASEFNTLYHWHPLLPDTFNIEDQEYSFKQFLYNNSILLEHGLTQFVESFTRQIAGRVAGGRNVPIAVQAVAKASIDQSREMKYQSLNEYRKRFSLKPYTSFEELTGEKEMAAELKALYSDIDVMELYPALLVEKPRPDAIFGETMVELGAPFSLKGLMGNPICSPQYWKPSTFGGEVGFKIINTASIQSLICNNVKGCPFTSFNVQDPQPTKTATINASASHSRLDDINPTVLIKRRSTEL

[3] = biological target: Prostaglandin G/H synthase 1 (Homo sapiens, UniProt P23219); assay: Inhibition of COX-1 in human OVCAR3 cells by cell-based assay; set-up: species or system OVCAR-3
[4] = biological target: T3, Prostaglandin G/H synthase 2 (Homo sapiens, UniProt P35354); assay: Inhibition of COX-2 in human 1483 cells by cell-based assay
T3 sequence (P35354 whole entry): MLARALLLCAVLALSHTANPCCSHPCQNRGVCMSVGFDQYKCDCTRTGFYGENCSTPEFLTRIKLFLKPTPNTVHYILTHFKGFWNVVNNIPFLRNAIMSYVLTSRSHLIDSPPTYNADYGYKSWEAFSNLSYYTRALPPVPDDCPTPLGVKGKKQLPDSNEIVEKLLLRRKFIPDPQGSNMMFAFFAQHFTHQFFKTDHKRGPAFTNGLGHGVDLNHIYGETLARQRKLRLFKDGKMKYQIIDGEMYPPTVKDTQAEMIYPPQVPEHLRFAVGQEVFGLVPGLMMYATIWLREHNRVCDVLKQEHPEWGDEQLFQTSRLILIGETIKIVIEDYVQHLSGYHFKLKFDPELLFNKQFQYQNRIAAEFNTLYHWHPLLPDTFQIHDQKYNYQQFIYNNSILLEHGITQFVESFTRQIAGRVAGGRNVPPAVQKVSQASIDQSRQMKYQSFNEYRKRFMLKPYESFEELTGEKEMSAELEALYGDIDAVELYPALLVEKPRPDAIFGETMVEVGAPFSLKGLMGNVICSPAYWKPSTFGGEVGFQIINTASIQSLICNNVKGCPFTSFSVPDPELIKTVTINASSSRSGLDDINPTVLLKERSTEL

[5] = biological target: T4, Prostaglandin G/H synthase 2 (Mus musculus) (UniProt Q05769); assay: Inhibition of mouse COX-2 assessed as inhibition of [14C]arachidonic acid to radiolabeled prostaglandins measured as residual activity preincubated for 20 mins by TLC-based assay
T4 sequence (whole entry): T2 sequence (Q05769 whole entry)

Chain of Prostaglandin G/H synthase 1 (Homo sapiens, UniProt P23219) (P23219 whole entry): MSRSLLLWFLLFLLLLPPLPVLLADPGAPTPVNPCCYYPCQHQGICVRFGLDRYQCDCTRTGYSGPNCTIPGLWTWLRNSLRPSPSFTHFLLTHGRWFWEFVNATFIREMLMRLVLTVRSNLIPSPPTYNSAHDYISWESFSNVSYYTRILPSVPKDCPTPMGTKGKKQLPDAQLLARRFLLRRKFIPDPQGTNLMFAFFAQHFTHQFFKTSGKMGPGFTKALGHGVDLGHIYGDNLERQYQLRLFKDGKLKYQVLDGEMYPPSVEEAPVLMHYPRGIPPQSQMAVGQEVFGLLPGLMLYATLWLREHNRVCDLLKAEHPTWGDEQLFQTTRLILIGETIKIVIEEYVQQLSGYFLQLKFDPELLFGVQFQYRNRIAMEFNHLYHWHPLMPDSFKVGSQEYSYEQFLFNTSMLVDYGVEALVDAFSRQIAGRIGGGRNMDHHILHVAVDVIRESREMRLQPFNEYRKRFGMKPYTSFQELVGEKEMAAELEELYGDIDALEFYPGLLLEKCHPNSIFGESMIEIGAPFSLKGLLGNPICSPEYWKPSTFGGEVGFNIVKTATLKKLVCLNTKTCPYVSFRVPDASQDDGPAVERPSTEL

| SMILES | IC50 [1] [µM] | IC50 [2] [µM] | IC50 [3] [µM] | IC50 [4] [µM] | Activity [5] [%] |
| --- | --- | --- | --- | --- | --- |
| O=C1OCC(c2ccccc2F)=C1c1ccccc1 | > 25 | > 25 |  |  |  |
| Cc1ccc(C2=C(c3ccccc3F)COC2=O)cc1 | > 25 | > 25 |  |  |  |
| N#Cc1ccc(C2=C(c3ccnc(F)c3)C(=O)OC2)cc1 | 4.4 | > 25 |  |  |  |
| N#Cc1ccc(C2=C(c3ccnc(Cl)c3)C(=O)OC2)cc1 | 3 | > 25 |  |  |  |
| CN(C)c1ccc(C2=C(c3ccccc3F)COC2=O)cc1 | > 25 | > 25 |  |  |  |
| COc1ccc(C2=C(c3ccc(F)cc3)C(=O)OC2)cc1 | 0.48 | > 25 | 0.36 | > 5 | > 50 |
| O=C1OCC(c2ccccc2)=C1c1cccc(F)c1 | > 25 | > 25 |  |  |  |
| COc1ccc(C2=C(c3ccc(Br)cc3)C(=O)OC2)cc1 | 0.12 | 0.45 |  |  |  |
| Cc1ccc(C2=C(c3ccnc(Cl)c3)C(=O)OC2)cc1 | 5 | > 25 |  |  |  |
| COc1ccc(C2=C(c3cccc(F)c3)C(=O)OC2)cc1 | 0.36 | > 25 |  |  | > 50 |
| O=C1OCC(c2ccc(F)cc2)=C1c1ccc(Cl)cc1 | > 25 | > 25 |  |  |  |
| O=C1OCC(c2ccccc2F)=C1c1ccc(Cl)cc1 | > 25 | > 25 |  |  |  |
| COc1ccc(C2=C(c3ccc(C(F)(F)F)cc3)C(=O)OC2)cc1 | 1 | > 25 |  |  |  |
| O=C1OCC(c2ccccc2)=C1c1ccccc1 | 5.9 | > 25 |  |  |  |
| CSc1ccc(C2=C(c3ccc(F)cc3)C(=O)OC2)cc1 | > 25 | > 25 |  |  |  |
| CS(=O)(=O)c1ccc(C2=C(c3ccccc3)C(=O)OC2)cc1 [ROFECOXIB] |  | 0.06 |  |  |  |
| CN(C)c1ccc(C2=C(c3ccc(F)cc3)COC2=O)cc1 | > 25 | > 25 |  |  |  |
| Cc1ccc(C2=C(c3ccc(Oc4ccc(F)cc4)cc3)C(=O)OC2)cc1 | > 25 | > 25 |  |  |  |
| COc1ccc(C2=C(c3ccc(Oc4ccc(F)cc4)cc3)C(=O)OC2)cc1 | > 25 | > 25 |  |  |  |
| O=C1OCC(c2ccccc2)=C1c1ccccc1F | > 25 | > 25 |  |  |  |
| COc1ccc(C2=C(c3ccccc3)C(=O)OC2)cc1 | > 25 | > 25 |  |  |  |
| Cc1ccc(C2=C(c3cccc(F)c3)C(=O)OC2)cc1 | > 25 | > 25 |  |  |  |
| O=C1OCC(c2cccc(F)c2)=C1c1ccccc1 | > 25 | > 25 |  |  |  |
| O=C1OCC(c2ccc(OC(F)(F)F)cc2)=C1c1cccc(F)c1 | > 25 | > 25 |  |  |  |
| N#Cc1ccc(C2=C(c3cccc(F)c3)C(=O)OC2)cc1 | 0.47 | > 25 |  |  |  |

| SMILES | IC50 [1] [µM] | IC50 [2] [µM] | IC50 [3] [µM] | IC50 [4] [µM] | Activity [5] [%] |
| --- | --- | --- | --- | --- | --- |
| Cc1ccc(C2=C(c3cccc(F)c3)COC2=O)cc1 | > 25 | > 25 |  |  |  |
| COc1ccc(C2=C(c3ccnc(F)c3)C(=O)OC2)cc1 | 4.6 | > 25 |  |  |  |
| O=C1OCC(c2ccc(C(F)(F)F)cc2)=C1c1cccc(F)c1 | > 25 | > 25 |  |  |  |
| CCc1ccc(C2=C(c3cccc(F)c3)C(=O)OC2)cc1 | 9.75 | > 25 |  |  |  |
| Cc1ccc(C2=C(c3ccccc3F)C(=O)OC2)cc1 | 1 | > 25 |  |  |  |
| COc1ccc(C2=C(c3ccc(I)cc3)C(=O)OC2)cc1 | 0.09 | > 25 | > 4 | > 5 | > 50 |
| O=C1OCC(c2ccccc2F)=C1c1ccc(Br)cc1 | > 25 | > 25 |  |  |  |
| O=C1OCC(c2ccc(F)cc2)=C1c1ccccc1 | > 25 | > 25 |  |  |  |
| Cc1ccc(C2=C(c3ccc(F)cc3)C(=O)OC2)cc1 | 0.95 | > 25 | 0.78 | > 5 |  |
| O=C1OCC(c2ccccc2F)=C1c1ccc(CO)cc1 | > 25 | > 25 |  |  |  |
| O=C1OCC(c2ccc(Cl)cc2)=C1c1ccnc(Cl)c1 | > 25 | > 25 |  |  |  |
| O=C1OCC(c2ccc(Cl)cc2)=C1c1ccnc(F)c1 | 15.7 | > 25 |  |  |  |
| COc1ccc(C2=C(c3ccnc(Cl)c3)C(=O)OC2)cc1 | 4.4 | > 25 |  |  |  |
| Cc1ccc(C2=C(c3ccnc(F)c3)C(=O)OC2)cc1 | > 25 | > 25 |  |  |  |
| O=C1OCC(c2ccccc2)=C1c1ccc(Oc2ccc(F)cc2)cc1 | > 25 | > 25 |  |  |  |
| Cc1ccc(C2=C(c3ccc(F)cc3)COC2=O)cc1 | > 25 | > 25 |  |  |  |
| O=C1OCC(c2ccc(O)cc2)=C1c1cccc(F)c1 | 1.75 | > 25 |  |  |  |
| COc1ccc(C2=C(c3cccc(Cl)c3F)C(=O)OC2)cc1 | 0.3 | > 25 |  |  | > 50 |
| COc1ccc(C2=C(c3ccccc3F)C(=O)OC2)cc1 | > 25 | > 25 |  |  |  |
| O=C1OCC(c2ccc(F)cc2)=C1c1ccc(CO)cc1 | > 25 | > 25 |  |  |  |
| COc1ccc(C2=C(c3cccc(C(F)(F)F)c3)C(=O)OC2)cc1 | 8.8 | > 25 |  |  |  |
| O=C1OCC(c2ccccc2)=C1c1ccc(F)cc1 | 6 | > 25 | 2.8 | > 5 |  |
| O=C1OCC(c2ccc(F)cc2)=C1c1ccc(O)cc1 | > 25 | > 25 |  |  |  |
| O=C1OCC(c2ccc(F)cc2)=C1c1ccc(Br)cc1 | > 25 | > 25 |  |  |  |
